Like-named read-outs stand apart in the source and are kept apart here.
Columns and labels:
[1] = system: phospho-Src; test: phospho-Src levels in A549 cells (Western blotting); format: cell-based, human; settings: 10 μM, 4 hours
Description: (§1) Western blotting. Treated cell samples were lysed in 30 mM HEPES, pH 7.5, 10 mM NaCl, 5 mM MgCl2, 25 mM NaF, 1 mM EGTA, 1% Triton X-100, 10% glycerol, 2 mM sodium orthovanadate, 10 μg/ml aprotinin, 10μ/ml soybean trypsin inhibitor, 25 μg/ml leupeptin, 2 mM PMSF, and 6.4 mg/ml p-nitrophenylphosphate. Phospho-STAT3, phospho-AKT, phospho-Src, and phospho-p42/p44 MAPK antibodies were obtained from Cell Signaling Technologies (Cambridge, Mass., USA). Phospho-JNK and whole STAT3 antibodies were purchased from Santa Cruz Biotechnology (Santa Cruz, Calif., USA); phospho-JAK2 antibody came from Upstate Biotechnology (Lake Placid, N.Y., USA). Membranes were blocked in either 5% milk in phosphate-buffered saline (PBS), pH 7.4, containing 0.1% Tween-20 (PBS-T) or 1% BSA in tris-buffered saline (TBS), pH 7.5, containing 0.1% Tween-20 (TBS-T). Phospho-specific antibodies (excepting P-MAPK and P-JNK) were incubated in 1% BSA in TBS-T while all other antibodies were diluted in 5% milk in PBS-T for either 2 h at room temperature or overnight at 4° C. HRP-conjugated secondary antibodies (Jackson ImmunoResearch, West Grove, Pa., USA) were diluted in 5% milk in either PBS-T or TBS-T at 1:1000 dilution for 1 h at room temperature. […]
(§2) It was next determined whether withacnistin and the Cuc analogs are selective for the JAK2/STAT3 pathway over other signal transduction pathways. […]

[2] = system: phospho-Akt; test: phospho-Akt levels in A549 cells (Western blotting); format: cell-based, human; settings: 10 μM, 4 hours
Description: as §1, §2

[3] = system: phospho-Erk1/2; test: phospho-Erk1/2 levels in A549 cells (Western blotting); format: cell-based, human; settings: 10 μM
Description: as §1, §2

[4] = system: MDA-MB-435 cells; test: TUNEL apoptosis assay, MDA-MB-435; format: cell-based, human; settings: 10 μM withacnistin mixture, 24 hours
Description: (§3) In vitro cellular proliferation and TUNEL assays. Subconfluent A549, MDA-MB-435, MDA-MB-453, MDAMB-468, v-Src transformed NIH 3T3 (v-Src/3T3), H-Ras transformed NIH 3T3 (H-Ras/3T3), and vector NIH 3T3 cells were grown in the presence of 10 μM cucurbitacin A, cucurbitacin I, withacnistin mixture, or DMSO vehicle control. After 24 hours, cells were harvested by trypsinization and counted via trypan blue exclusion assay to determine cellular viability. In all, 75,000-150,000 cells (depending on cell line) were then spun onto glass slides using a Cytospin 3 centrifuge (Thermo Shandon Inc., Pittsburgh, Pa., USA). After fixing cells to the slides with 4% paraformaldehyde in PBS, pH 7.5, for 1 h at room temperature, cells were labeled for apoptotic DNA strand breaks by TUNEL reaction using an in situ cell death detection kit (Roche Applied Science, Indianapolis, Ind., USA) according to the manufacturer's instructions, then mounted in Vectashield mounting medium (Vector Laboratories, Burlingame, Calif., USA) containing 4′,6-diamidino-2-phenylindole (DAPI) to counterstain DNA. […] TUNELpositive nuclei were counted and compared to DAPI-stained nuclei to determine the percent induction of apoptosis by the different cucurbitacin compounds. Statistical significance between control and treated tumors were evaluated by using Student's t-test. […]

[5] = system: v-Src/3T3 cells; test: TUNEL apoptosis assay, v-Src/3T3; format: cell-based, murine; settings: 10 μM withacnistin mixture, 24 hours
Description: as §3

[6] = molecular target: T1, Src kinase (Homo sapiens, UniProt P12931); test: Src kinase inhibition in vitro; format: biochemical; settings: data not shown
T1 sequence (P12931 whole entry): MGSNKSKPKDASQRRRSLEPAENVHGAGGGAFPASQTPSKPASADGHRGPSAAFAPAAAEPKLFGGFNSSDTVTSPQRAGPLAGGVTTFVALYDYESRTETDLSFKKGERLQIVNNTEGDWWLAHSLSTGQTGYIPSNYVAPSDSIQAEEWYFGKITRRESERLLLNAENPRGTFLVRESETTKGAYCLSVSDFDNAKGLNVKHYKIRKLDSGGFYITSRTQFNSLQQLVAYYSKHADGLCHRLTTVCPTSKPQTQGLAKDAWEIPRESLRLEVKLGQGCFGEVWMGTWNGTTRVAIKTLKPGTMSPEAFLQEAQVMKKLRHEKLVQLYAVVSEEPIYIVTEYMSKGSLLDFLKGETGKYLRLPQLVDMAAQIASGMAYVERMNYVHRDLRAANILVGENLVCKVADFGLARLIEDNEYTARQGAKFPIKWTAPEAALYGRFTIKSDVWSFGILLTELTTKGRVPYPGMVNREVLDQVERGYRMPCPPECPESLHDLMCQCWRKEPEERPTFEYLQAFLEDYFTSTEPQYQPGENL
From the text: The actual biochemical targets for cucurbitacins are not known. […] Possible tyrosine kinases that could be targets are the Src family of kinases. Src kinase itself was not inhibited in vitro by Cuc I (Blaskovich, M. A. et al. Cancer Res., 2003, 63:1270-1279) and withacnistin (data not shown).

[7] = molecular target: T2, STAT3 (Homo sapiens, UniProt P40763); test: Growth factor/cytokine stimulation of STAT3 tyrosine phosphorylation; format: cell-based
T2 construct: endogenous in cells; host or cells: U266; MDA-MB-468
T2 sequence (P40763 2-770 limits assumed): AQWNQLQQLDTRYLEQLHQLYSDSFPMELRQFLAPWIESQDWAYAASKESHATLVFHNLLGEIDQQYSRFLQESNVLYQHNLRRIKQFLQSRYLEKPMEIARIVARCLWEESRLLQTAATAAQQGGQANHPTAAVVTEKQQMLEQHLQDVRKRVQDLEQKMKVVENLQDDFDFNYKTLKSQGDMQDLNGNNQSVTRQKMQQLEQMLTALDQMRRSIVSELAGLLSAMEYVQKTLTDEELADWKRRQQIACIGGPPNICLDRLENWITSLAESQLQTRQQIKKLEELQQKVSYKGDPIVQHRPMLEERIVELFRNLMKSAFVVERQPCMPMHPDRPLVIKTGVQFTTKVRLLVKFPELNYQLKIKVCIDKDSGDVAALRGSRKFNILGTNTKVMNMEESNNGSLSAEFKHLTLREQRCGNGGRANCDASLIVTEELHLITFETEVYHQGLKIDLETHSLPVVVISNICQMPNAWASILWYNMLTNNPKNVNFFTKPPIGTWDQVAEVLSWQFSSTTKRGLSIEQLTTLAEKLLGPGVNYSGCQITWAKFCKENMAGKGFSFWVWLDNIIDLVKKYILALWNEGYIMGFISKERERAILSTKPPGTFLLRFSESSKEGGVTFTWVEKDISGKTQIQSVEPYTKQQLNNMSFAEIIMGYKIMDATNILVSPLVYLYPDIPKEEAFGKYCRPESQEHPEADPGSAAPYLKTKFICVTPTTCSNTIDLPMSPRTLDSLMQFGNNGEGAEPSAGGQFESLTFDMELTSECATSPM
Description: Furthermore, it is not know whether Wit suppresses constitutive or stimulated P-STAT3 levels selectively over other STAT family members such as STAT1 and STAT5. To this end, a variety of human cancer cell lines were treated with Wit and stimulated with growth factors or cytokines known to activate STAT family members as described under Methods. […] Pretreatment of U266 cells with W or WM blocked this IL-6 activation of STAT3 in a dose-dependent manner. In contrast, IL-6 activation of STAT1 in these cells was not affected by Wit pretreatment (FIG. 9B).

[8] = system: SOCS3; test: SOCS3 levels in cancer cell lines; format: cell-based, human; settings: A549 cells
Description: Activation of STAT3 occurs through its tyrosine phosphorylation. Inactivation of STAT3 can occur through several mechanisms including dephosphorylation by phosphotyrosine protein phosphatases as well as blocking STAT3 activation by SOCS3, which binds and prevents kinases from activating STAT3. To determine whether Wit also affects negative regulators of STAT3, its effects on SOCS3 were determined. To this end, A549 cells were first treated with Wit for various periods of time and its effects on both P-STAT3 and SOCS3 were determined. […] However, by 24 hours, Wit suppressed both P-STAT3 and total STAT3 levels (data not shown). […] It is important to note that WM had little effect on […] protein levels (FIGS. 11A and 11C).

[9] = system: phosphotyrosine-STAT3; test: Inhibition of phosphotyrosine-STAT3 levels in tumor cell lines (Western blotting); format: cell-based, human; settings: A549 cells, by 24 hours; data not shown
[10] = molecular target: T1, Src kinase; settings: Blaskovich et al. 2003; cited from earlier work

## CC(=O)OC(C)(C)/C=C/C(=O)[C@](C)(O)[C@H]1[C@H](O)C[C@@]2(C)[C@@H]3CC=C4[C@@H](C[C@H](O)C(=O)C4(C)C)[C@]3(CO)C(=O)C[C@]12C [Cuc A, cucurbitacin A]
[1]
  phosphotyrosine levels of Src: little inhibitory activity
[2]
  phosphotyrosine levels of Akt: little inhibitory activity

## CC(=O)OC[C@]12CC[C@H]3[C@@H](C[C@H]4O[C@]45[C@@H](O)C=CC(=O)[C@]35C)[C@@H]1CC[C@@H]2[C@H](C)[C@H]1CC(C)=C(C)C(=O)O1 [withacnistin]
[3]
  levels of phosphorylated Erk1/2: significantly increased
[4]
  increase of percentage of apoptotic cells compared to vehicle control: 25.9 fold
[5]
  apoptosis (TUNEL-positive cells): 39.2±7.3%
  fold increase of apoptosis over control: 50.2 fold
[6]
  inhibition of Src kinase in vitro: not inhibited
[7]; MDA-MB-468 cells
  EGF activation of STAT3: inhibited
[7]; U266 cells, pretreatment, dose-dependent
  IL-6 activation of STAT3 (tyrosine phosphorylation): blocked
[7]; pretreatment (FIG. 9D)
  PDGF-stimulated tyrosine phosphorylation of STAT3: inhibited
[8]
  levels of SOCS3: induced
  onset of SOCS3 induction: detectable only after two hours
[9]
  P-STAT3 levels: suppressed

## CC(C)(O)/C=C/C(=O)[C@](C)(O)[C@H]1[C@H](O)C[C@@]2(C)[C@@H]3CC=C4[C@@H](C=C(O)C(=O)C4(C)C)[C@]3(C)C(=O)C[C@]12C [Cuc I, cucurbitacin I]
[10]
  inhibition of Src kinase in vitro: not inhibited

From patent US20070191490A1, “Withacnistin compounds for treatment of cancer” (priority 2006, published 2007)
